In patent publication US5165931A, “Peptifluorin and neopeptifluorin” (E. R. Squibb & Sons, Inc., priority 1991, dated 1992):

Key:
bacteria = experiment: antibacterial activity (general statement); type: cell-based
Description: (§1) The following methodology was used to determine the minimum inhibitory concentration (hereinafter referred to as MIC) of the compound of this invention against bacteria. The test organisms were grown in 20 ml of Antibiotic Assay Broth (Difco) by inoculating the broth (in tubes) with a loopful of the organism from a BHI (Difco) agar slant. The inoculated tubes were incubated at 37° C. for 18 to 24 hours. These cultures were assumed to contain 10^9 colony forming units (CFU) per ml. The cultures were diluted 1:100 to give a final inoculum level of 10^7 CFU; dilutions were made with Yeast Beef Broth (Difco). The test compound was dissolved in an appropriate diluent at a concentration of 1,000 μg/ml. Two-fold dilutions were made in Yeast Beef Broth (Difco), resulting in
(§2) a range from 1000 μg/ml to 0.5 μg/ml. A 1.5 ml portion of each dilution was placed into individual petri dishes to which 13.5 ml of K-10 agar was added. The composition of K-10 agar is:
The final drug concentration in the agar ranged from 100 μg/ml to 0.05 μg/ml. Organism growth control plates containing agar only were prepared and inoculated before and after the test plates. […]
The plates were incubated at 37° C. for 18 hours and the MICs determined. […]

mevalonate kinase = experiment: inhibition of mevalonate kinase from yeast; type: biochemical
Staphylococcus aureus = experiment: agar dilution MIC assay, bacteria; type: cell-based; conditions: K-10 agar, 37° C., 18 hours
Description: as §1, §2
(§3) The medium was sterilized at 121° C. for 15 minutes at 15 pounds psi.
(§4) The final drug concentration in the agar ranged from 100 μg/ml to 0.05 μg/ml. Organism growth control plates containing agar only were prepared and inoculated before and after the test plates. The organisms were applied to the agar surface of each plate with a Denly Multipoint Inoculator (which delivers approximately 0.001 ml of each inoculum) resulting in a final inoculum of 10^4 CFU on the agar surface.
(§5) The plates were incubated at 37° C. for 18 hours and the MICs determined. The MIC is the lowest concentration of compound inhibiting growth of the organism.
(§6) The results of the agar dilution assays with bacteria are: […]

Salmonella typhosa = experiment: agar dilution MIC assay, bacteria; type: cell-based; conditions: strain SC 1195; K-10 agar, 37° C., 18 hours
Description: as §1, §2, §3, §4, §5, §6

Streptococcus agalactiae = experiment: agar dilution MIC assay, bacteria; type: cell-based; conditions: strain SC 14,008; K-10 agar, 37° C., 18 hours
Description: as §1, §2, §3, §4, §5, §6

Klebsiella pneumoniae = experiment: agar dilution MIC assay, bacteria; type: cell-based; conditions: K-10 agar, 37° C., 18 hours
Description: as §1, §2, §3, §4, §5, §6

Micrococcus luteus = experiment: agar dilution MIC assay, bacteria; type: cell-based; conditions: strain SC 2495; K-10 agar, 37° C., 18 hours
Description: as §1, §2, §3, §4, §5, §6

Enterobacter cloacae = experiment: agar dilution MIC assay, bacteria; type: cell-based; conditions: strain SC 8236; K-10 agar, 37° C., 18 hours
Description: as §1, §2, §3, §4, §5, §6

Escherichia coli = experiment: agar dilution MIC assay, bacteria; type: cell-based; conditions: K-10 agar, 37° C., 18 hours
Description: as §1, §2, §3, §4, §5, §6

Streptococcus faecalis = experiment: agar dilution MIC assay, bacteria; type: cell-based; conditions: strain SC 9011; K-10 agar, 37° C., 18 hours
Description: as §1, §2, §3, §4, §5, §6

Shigella sonnei = experiment: agar dilution MIC assay, bacteria; type: cell-based; conditions: strain SC 8449; K-10 agar, 37° C., 18 hours
Description: as §1, §2, §3, §4, §5, §6

Candida krusei = experiment: agar dilution MIC assay, yeasts; type: cell-based; conditions: strain SC 2967; 37° C., 36-48 hours
Description: as §1, §2, §4, §5
(§7) The methodology described above was modified in the assay for activity against yeasts. Fresh F-4 slants of the test organisms were obtained from frozen vials (-70° C.). The cultures were inoculated into tubes of F-4 broth and incubated at 37° C. for 18 to 24 hours, at which time the average cell count was assumed to be 5×10^7 CFU per ml. These were diluted 1:50 with fresh F-4 broth to give an inoculum level of 1×10^6 CFU per mL. The organisms were then dispensed into a sterile template (0.8 ml per well) and delivered onto the surface of each plate containing test compound as described above with a Denly Multipoint Inoculator, resulting in a final inoculum of 10^3 CFU on the agar surface.
(§8) The composition of the F-4 broth is:
(§9) The medium was sterilized at 121° C. for 15 minutes at 15 psi.
(§10) F-4 agar has the same composition as the broth but with the addition of 15 g agar per liter.
(§11) The results of the yeast, agar dilution assays (determined after incubation at 37° C. for 36-48 hours) are: […]

Candida tropicalis = experiment: agar dilution MIC assay, yeasts; type: cell-based; conditions: 37° C., 36-48 hours
Description: as §1, §2, §4, §5, §7, §8, §9, §10, §11

Saccharomyces cerevisiae = experiment: agar dilution MIC assay, yeasts; type: cell-based; conditions: 37° C., 36-48 hours
Description: as §1, §2, §4, §5, §7, §8, §9, §10, §11

Candida glabrata = experiment: agar dilution MIC assay, yeasts; type: cell-based; conditions: strain SC 11,267; 37° C., 36-48 hours
Description: as §1, §2, §4, §5, §7, §8, §9, §10, §11

Candida albicans = experiment: agar dilution MIC assay, yeasts; type: cell-based; conditions: 37° C., 36-48 hours
Description: as §1, §2, §4, §5, §7, §8, §9, §10, §11

yeasts = experiment: antifungal activity (general statement); type: cell-based
Description: as §7

Q: Which results are given for neopeptifluorin?
A: antibacterial activity (bacteria): broad spectrum antibacterial activity; inhibiting mevalonate kinase from yeast (mevalonate kinase): moderately active; MIC (Staphylococcus aureus; strain SC 1276): 3.1 µg/mL; MIC (Staphylococcus aureus; strain SC 2399): 6.3 µg/mL; MIC (Staphylococcus aureus; strain SC 2400): 6.3 µg/mL; MIC (Salmonella typhosa): 100 µg/mL; MIC (Streptococcus agalactiae): 6.3 µg/mL; MIC (Klebsiella pneumoniae; strain SC 9527): > 100 µg/mL; MIC (Klebsiella pneumoniae; strain SC 10,440): 25.0 µg/mL; MIC (Micrococcus luteus): 6.3 µg/mL; MIC (Enterobacter cloacae): 12.5 µg/mL; MIC (Escherichia coli; strain SC 8294): 50.0 µg/mL; MIC (Escherichia coli; strain SC 10,857): 12.5 µg/mL; MIC (Escherichia coli; strain SC 10,896): 12.5 µg/mL; MIC (Streptococcus faecalis): 6.3 µg/mL; MIC (Shigella sonnei): 25 µg/mL; MIC (Candida krusei): 100 µg/mL; MIC (Candida tropicalis; strain SC 8159): 6.3 µg/mL; MIC (Candida tropicalis; strain SC 9861): 3.1 µg/mL; MIC (Saccharomyces cerevisiae; strain SC 1600): 6.3 µg/mL; MIC (Saccharomyces cerevisiae; strain SC 12,955): 12.5 µg/mL; MIC (Saccharomyces cerevisiae; strain SGY 1139): 1.6 µg/mL; MIC (Candida glabrata): 25.0 µg/mL; MIC (Candida albicans; strain SC 5314): 6.3 µg/mL; MIC (Candida albicans; strain SC 9177): 25.0 µg/mL; MIC (Candida albicans; strain SC 11,422): 12.5 µg/mL; antifungal activity (yeasts): antifungal activity

Q: With peptifluorin as the substance, how does the antibacterial activity (bacteria) read?
A: broad spectrum antibacterial activity

Q: What about the “inhibiting mevalonate kinase from yeast” value (mevalonate kinase) of the same substance?
A: moderately active

Q: And the MIC (Staphylococcus aureus; strain SC 1276)?
A: 6.3 µg/mL

Q: And the MIC (Staphylococcus aureus; strain SC 2399)?
A: 6.3 µg/mL

Q: What about the MIC (Staphylococcus aureus; strain SC 2400) of the same substance?
A: 6.3 µg/mL

Q: And the MIC (Salmonella typhosa)?
A: > 100.0 µg/mL

Q: And the MIC (Klebsiella pneumoniae; strain SC 9527)?
A: > 100.0 µg/mL

Q: What about the MIC (Klebsiella pneumoniae; strain SC 10,440) of the same substance?
A: 50.0 µg/mL

Q: What about the MIC (Micrococcus luteus) of the same substance?
A: 6.3 µg/mL

Q: What about the MIC (Enterobacter cloacae) of the same substance?
A: 25.0 µg/mL

Q: And the MIC (Escherichia coli; strain SC 8294)?
A: > 100.0 µg/mL

Q: What about the MIC (Escherichia coli; strain SC 10,857) of the same substance?
A: 50.0 µg/mL

Q: What about the MIC (Escherichia coli; strain SC 10,896) of the same substance?
A: 12.5 µg/mL

Q: What about the MIC (Streptococcus faecalis) of the same substance?
A: 6.3 µg/mL

Q: And the MIC (Shigella sonnei)?
A: 25.0 µg/mL

Q: And the MIC (Candida krusei)?
A: 100 µg/mL

Q: What about the MIC (Candida tropicalis; strain SC 8159) of the same substance?
A: 12.5 µg/mL

Q: And the MIC (Candida tropicalis; strain SC 9861)?
A: 3.1 µg/mL

Q: What about the MIC (Saccharomyces cerevisiae; strain SC 1600) of the same substance?
A: 12.5 µg/mL

Q: And the MIC (Saccharomyces cerevisiae; strain SC 12,955)?
A: 25.0 µg/mL

Q: And the MIC (Saccharomyces cerevisiae; strain SGY 1139)?
A: 3.1 µg/mL

Q: What about the MIC (Candida glabrata) of the same substance?
A: 12.5 µg/mL

Q: What about the MIC (Candida albicans; strain SC 5314) of the same substance?
A: 12.5 µg/mL

Q: And the MIC (Candida albicans; strain SC 9177)?
A: 25.0 µg/mL

Q: And the MIC (Candida albicans; strain SC 11,422)?
A: 12.5 µg/mL

Q: What about the antifungal activity (yeasts) of the same substance?
A: antifungal activity
